This note sets out measurements from article PMC9516332 (Frontiers in Oncology, 2022).

What all share (assay): Kinase panel profiling at 1 µmol/L (MSA or IMAP), percentage inhibition
Assay type in all cases: biochemical

In assay [1] the target is panel of 255 wild-type kinases (Homo sapiens, UniProt P22455). The note with it: kinase FGFR4; 1 µmol/L single concentration; read-out: %-inhibition at 1 µmol/L, FGFR4.
In assay [2] the target is panel of 255 wild-type kinases (Homo sapiens, UniProt P43405). The note with it: kinase SYK; 1 µmol/L single concentration; read-out: %-inhibition at 1 µmol/L, SYK.
The target of assay [3] is T1, panel of 255 wild-type kinases (Homo sapiens, UniProt P51813).
T1 sequence (P51813 1-675): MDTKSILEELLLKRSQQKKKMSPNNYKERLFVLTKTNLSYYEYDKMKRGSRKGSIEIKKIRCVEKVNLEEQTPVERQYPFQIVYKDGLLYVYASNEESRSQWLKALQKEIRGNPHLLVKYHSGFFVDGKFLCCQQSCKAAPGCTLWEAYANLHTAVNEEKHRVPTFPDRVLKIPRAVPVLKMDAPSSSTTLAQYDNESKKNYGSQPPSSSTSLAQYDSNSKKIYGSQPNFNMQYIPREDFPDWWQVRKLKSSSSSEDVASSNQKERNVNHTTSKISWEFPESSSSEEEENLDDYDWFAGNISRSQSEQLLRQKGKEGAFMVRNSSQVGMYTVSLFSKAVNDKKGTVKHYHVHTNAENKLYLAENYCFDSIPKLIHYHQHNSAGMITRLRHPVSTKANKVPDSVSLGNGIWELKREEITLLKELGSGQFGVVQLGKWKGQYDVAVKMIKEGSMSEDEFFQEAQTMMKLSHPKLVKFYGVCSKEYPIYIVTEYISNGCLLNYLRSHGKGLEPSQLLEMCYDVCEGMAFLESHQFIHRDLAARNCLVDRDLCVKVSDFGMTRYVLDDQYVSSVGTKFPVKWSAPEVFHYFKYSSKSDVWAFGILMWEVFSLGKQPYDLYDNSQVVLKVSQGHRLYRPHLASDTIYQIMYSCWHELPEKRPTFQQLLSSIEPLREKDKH
The following applies: BMX kinase assay; 1 µmol/L single concentration; read-out: %-inhibition BMX.

Assay [4] concerns the target panel of 255 wild-type kinases (Homo sapiens, UniProt P53350). The following applies: kinase PLK1; 1 µmol/L single concentration; read-out: %-inhibition at 1 µmol/L, PLK1.
In assay [5] the target is T2, panel of 255 wild-type kinases (Homo sapiens, UniProt Q13188).
T2 sequence (Q13188 1-491): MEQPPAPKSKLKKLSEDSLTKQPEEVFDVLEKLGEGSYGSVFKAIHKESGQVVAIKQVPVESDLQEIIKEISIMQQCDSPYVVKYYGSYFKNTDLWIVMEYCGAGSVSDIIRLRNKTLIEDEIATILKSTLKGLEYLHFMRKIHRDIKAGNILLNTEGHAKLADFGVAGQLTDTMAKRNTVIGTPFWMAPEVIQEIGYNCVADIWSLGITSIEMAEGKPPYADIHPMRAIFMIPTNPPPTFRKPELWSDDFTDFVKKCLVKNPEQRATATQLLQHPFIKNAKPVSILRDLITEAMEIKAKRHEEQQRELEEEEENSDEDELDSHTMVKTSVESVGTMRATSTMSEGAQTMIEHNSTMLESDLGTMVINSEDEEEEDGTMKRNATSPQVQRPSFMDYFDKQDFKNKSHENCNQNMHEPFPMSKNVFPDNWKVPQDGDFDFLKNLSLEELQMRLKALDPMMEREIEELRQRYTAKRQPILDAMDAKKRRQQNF
The following applies: MST2; 1 µmol/L single concentration; read-out: %-inhibition, MST2.

In assay [6] the target is T3, panel of 255 wild-type kinases (Homo sapiens, UniProt Q8TF76).
T3 sequence (Q8TF76 1-798): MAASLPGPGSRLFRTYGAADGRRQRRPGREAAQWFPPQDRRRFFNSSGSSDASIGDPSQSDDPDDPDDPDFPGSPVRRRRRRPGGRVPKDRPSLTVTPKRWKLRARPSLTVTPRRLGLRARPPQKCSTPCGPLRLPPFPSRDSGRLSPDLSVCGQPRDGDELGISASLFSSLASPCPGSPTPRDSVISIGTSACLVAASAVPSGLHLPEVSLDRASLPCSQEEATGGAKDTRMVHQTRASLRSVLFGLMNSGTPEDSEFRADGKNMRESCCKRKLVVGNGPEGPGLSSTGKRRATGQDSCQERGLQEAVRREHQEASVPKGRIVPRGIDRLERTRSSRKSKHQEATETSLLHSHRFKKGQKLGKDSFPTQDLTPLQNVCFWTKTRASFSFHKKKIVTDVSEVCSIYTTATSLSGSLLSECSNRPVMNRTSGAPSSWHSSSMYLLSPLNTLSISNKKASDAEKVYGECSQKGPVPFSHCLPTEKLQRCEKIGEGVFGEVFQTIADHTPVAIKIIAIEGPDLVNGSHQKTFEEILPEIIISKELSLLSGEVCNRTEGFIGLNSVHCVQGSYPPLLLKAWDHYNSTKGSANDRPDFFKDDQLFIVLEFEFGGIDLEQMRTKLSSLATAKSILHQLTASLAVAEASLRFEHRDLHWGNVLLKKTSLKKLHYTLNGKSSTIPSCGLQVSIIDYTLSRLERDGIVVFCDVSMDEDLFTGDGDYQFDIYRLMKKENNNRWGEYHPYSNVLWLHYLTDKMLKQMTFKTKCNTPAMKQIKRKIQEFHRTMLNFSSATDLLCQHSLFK
The note with it: kinase Haspin; 1 µmol/L single concentration; read-out: %-inhibition at 1 µmol/L, Haspin.

Assay [7] concerns the target panel of 255 wild-type kinases (Homo sapiens, UniProt Q9P286). The note with it: PAK5; 1 µmol/L single concentration; read-out: %-inhibition, PAK5.
Assay [8] deals with panel of 255 wild-type kinases (Homo sapiens, UniProt Q9Y243). The following applies: AKT3 kinase assay; 1 µmol/L single concentration; read-out: %-inhibition AKT3.

For the compound `CCN1C(=O)N(c2c(F)c(OC)cc(OC)c2F)Cc2cnc3[nH]c(CN4CCOCC4)cc3c21` [pemigatinib], the inhibition at 1 µM in assay [1] was 100%; in assay [2], -4.26%; in assay [3], 1.44%; in assay [4], -1.52%; in assay [5] it was 7%; in assay [6] it was -3.7%. For the same compound, the inhibition at 1 µM in assay [7] is 2.26%; in assay [8] it was -2.7%.

Turning to `FC(F)(F)c1ccc(CNc2ccc(Cc3c[nH]c4ncc(Cl)cc34)cn2)cn1` [pexidartinib], the inhibition at 1 µM was 7.42% in assay [1]; -6% in assay [2]; -0.565% in assay [3]; 6.33% in assay [4]; 10% in assay [5]; 6.52% in assay [6]. Further, the figures for the inhibition at 1 µM in assay [7] and in assay [8] were 7% and -6%, respectively.

Regarding `CO[C@]1(C(=O)N[C@@H](C)c2ccc(-n3cc(F)cn3)nc2)CC[C@H](c2nc(C)cc(Nc3cc(C)[nH]n3)n2)CC1` [pralsetinib], the inhibition at 1 µM is 85% in assay [1]; 85% in assay [2]; 82% in assay [3]; -2.47% in assay [4]; 5.55% in assay [5]; 0.149% in assay [6]. Moreover, the figures for the inhibition at 1 µM in assay [7] and in assay [8] were 69% and -2.71%, respectively.

Take `CCn1c(=O)c(-c2cc(NC(=O)Nc3ccccc3)c(F)cc2Br)cc2cnc(NC)cc21` [ripretinib]: the inhibition at 1 µM was 11% in assay [1]; -8% in assay [2]; 60% in assay [3]; 4% in assay [4]; 0.11% in assay [5]; 1.87% in assay [6]. The inhibition at 1 µM was 1.9% in assay [7] and -6.42% in assay [8].

With `COc1ccc(CN2C3CC2CN(c2ccc(-c4cc(OCC(C)(C)O)cn5ncc(C#N)c45)cn2)C3)cn1` [selpercatinib], the inhibition at 1 µM in assay [1] was 84%; in assay [2] it was 7.5%; in assay [3], 12%; in assay [4] it was -0.437%; in assay [5], 0.47%; in assay [6] it was -4.63%. The inhibition at 1 µM in assay [7] was 9%; in assay [8] it was -0.71%.

Consider `Cn1cnc2c(F)c(Nc3ccc(Br)cc3Cl)c(C(=O)NOCCO)cc21` [selumetinib], for which the inhibition at 1 µM is 6.37% in assay [1]; -12% in assay [2]; 2.24% in assay [3]; -4% in assay [4]; -2.14% in assay [5]; 3.64% in assay [6]. The inhibition at 1 µM in assay [7] was 0.473%; in assay [8], -6.42%.

For the compound `Cc1cc(Nc2ncnc3ccc(NC4=NC(C)(C)CO4)cc23)ccc1Oc1ccn2ncnc2c1` [tucatinib], the inhibition at 1 µM in assay [1] is 4%; in assay [2] it was -0.549%; in assay [3], 6.62%; in assay [4], -3.69%; in assay [5] it was -1.17%; in assay [6] it was 0.893%. The inhibition at 1 µM in assay [7] is 3.53%; in assay [8], -4.58%.
